PubChem BioAssay (NCI)
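Method: 48-hour compound exposure of cells in 96-well plates, five concentrations, linear interpolation of endpoints. TGI: concentration producing complete growth inhibition.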

What was measured:
Assay in all cases: NCI-60 cell line screen, 48 h
SNB-19 CNS = tested on: SNB-19 CNS
MDA-MB-231 breast = tested on: MDA-MB-231 breast
MDA-N = tested on: MDA-N
OVCAR-4 ovarian = tested on: OVCAR-4 ovarian
OVCAR-5 ovarian = tested on: OVCAR-5 ovarian
RXF 393 renal = tested on: RXF 393 renal
EKVX NSCLC = tested on: EKVX NSCLC
MCF7 breast = tested on: MCF7 breast
U251 CNS = tested on: U251 CNS
KM12 colon = tested on: KM12 colon
CAKI-1 renal = tested on: CAKI-1 renal
OVCAR-8 ovarian = tested on: OVCAR-8 ovarian
MOLT-4 leukemia = tested on: MOLT-4 leukemia
SF-295 CNS = tested on: SF-295 CNS
SK-OV-3 ovarian = tested on: SK-OV-3 ovarian
SR leukemia = tested on: SR leukemia
SW-620 colon = tested on: SW-620 colon
HS 578T breast = tested on: HS 578T breast
SN12C renal = tested on: SN12C renal
CCRF-CEM leukemia = tested on: CCRF-CEM leukemia
SK-MEL-2 melanoma = tested on: SK-MEL-2 melanoma
HOP-92 NSCLC = tested on: HOP-92 NSCLC
A549 NSCLC = tested on: A549 NSCLC
MALME-3M melanoma = tested on: MALME-3M melanoma
TK-10 renal = tested on: TK-10 renal
NCI/ADR-RES ovarian = tested on: NCI/ADR-RES ovarian
NCI-H226 lung = tested on: NCI-H226 lung
BT-549 breast = tested on: BT-549 breast
UACC-257 melanoma = tested on: UACC-257 melanoma
K-562 leukemia = tested on: K-562 leukemia
HCT-116 colon = tested on: HCT-116 colon
786-0 renal = tested on: 786-0 renal
OVCAR-3 ovarian = tested on: OVCAR-3 ovarian
MDA-MB-435 = tested on: MDA-MB-435
M14 melanoma = tested on: M14 melanoma
UO-31 renal = tested on: UO-31 renal
NCI-H460 lung = tested on: NCI-H460 lung
SK-MEL-5 melanoma = tested on: SK-MEL-5 melanoma
IGROV1 ovarian = tested on: IGROV1 ovarian
NCI-H23 lung = tested on: NCI-H23 lung
A498 renal = tested on: A498 renal
HL-60(TB) leukemia = tested on: HL-60(TB) leukemia
LOX IMVI melanoma = tested on: LOX IMVI melanoma
ACHN renal = tested on: ACHN renal
HT29 colon = tested on: HT29 colon
SK-MEL-28 melanoma = tested on: SK-MEL-28 melanoma
UACC-62 melanoma = tested on: UACC-62 melanoma
PC-3 prostate = tested on: PC-3 prostate
HOP-62 NSCLC = tested on: HOP-62 NSCLC
HCT-15 colon = tested on: HCT-15 colon
COLO 205 colon = tested on: COLO 205 colon
SF-539 CNS = tested on: SF-539 CNS

C=C1CC[C@]2(C)[C@H](CC[C@@]34C[C@@H](CC[C@H]32)[C@@H](C(=O)O)C4)C1(C)C
TGI (SNB-19 CNS): > 12.5 µM
TGI (MDA-MB-231 breast): > 12.5 µM
TGI (MDA-N): > 12.5 µM
TGI (OVCAR-4 ovarian): > 12.5 µM
TGI (OVCAR-5 ovarian): > 12.5 µM
TGI (RXF 393 renal): > 12.5 µM
TGI (EKVX NSCLC): > 12.5 µM
TGI (MCF7 breast): > 12.5 µM
TGI (U251 CNS): > 12.5 µM
TGI (KM12 colon): > 12.5 µM
TGI (CAKI-1 renal): > 12.5 µM
TGI (OVCAR-8 ovarian): > 12.5 µM
TGI (MOLT-4 leukemia): > 12.5 µM
TGI (SF-295 CNS): > 12.5 µM
TGI (SK-OV-3 ovarian): > 12.5 µM
TGI (SR leukemia): > 12.5 µM
TGI (SW-620 colon): > 12.5 µM
TGI (HS 578T breast): > 12.5 µM
TGI (SN12C renal): > 12.5 µM
TGI (CCRF-CEM leukemia): > 12.5 µM
TGI (SK-MEL-2 melanoma): > 12.5 µM
TGI (HOP-92 NSCLC): > 12.5 µM
TGI (A549 NSCLC): > 12.5 µM
TGI (MALME-3M melanoma): > 12.5 µM
TGI (TK-10 renal): > 12.5 µM
TGI (NCI/ADR-RES ovarian): > 12.5 µM
TGI (NCI-H226 lung): > 12.5 µM
TGI (BT-549 breast): > 12.5 µM
TGI (UACC-257 melanoma): > 12.5 µM
TGI (K-562 leukemia): > 12.5 µM
TGI (HCT-116 colon): > 12.5 µM
TGI (786-0 renal): > 12.5 µM
TGI (OVCAR-3 ovarian): > 12.5 µM
TGI (MDA-MB-435): > 12.5 µM
TGI (M14 melanoma): > 12.5 µM
TGI (UO-31 renal): > 12.5 µM
TGI (NCI-H460 lung): > 12.5 µM
TGI (SK-MEL-5 melanoma): > 12.5 µM
TGI (IGROV1 ovarian): > 12.5 µM
TGI (NCI-H23 lung): > 12.5 µM
TGI (A498 renal): 9.3 µM
TGI (HL-60(TB) leukemia): > 12.5 µM
TGI (LOX IMVI melanoma): > 12.5 µM
TGI (ACHN renal): > 12.5 µM
TGI (HT29 colon): > 12.5 µM
TGI (SK-MEL-28 melanoma): > 12.5 µM
TGI (UACC-62 melanoma): > 12.5 µM
TGI (PC-3 prostate): > 12.5 µM
TGI (HOP-62 NSCLC): > 12.5 µM
TGI (HCT-15 colon): > 12.5 µM
TGI (COLO 205 colon): > 12.5 µM
TGI (SF-539 CNS): > 12.5 µM
